Patent publication US20210032257A1, “(E)-1-(4-(DIMETHYLAMINO)BUT-2-ENOYL)PYRROLIDIN-3-YL 4-((3-ISOPROPYL-5-METHYLPYRAZOLO[1,5-A]PYRIMIDIN-7-YL)AMINO)PIPERIDINE-1-CARBOXYLATE FOR INHIBITING CDK7” (Eli Lilly and Company, priority 2017, published 2021)

How the values were obtained:
Assay in all cases: Biomarker study proliferation (CellTiter-Glo)
Type in all cases: cell-based
NCIH1666 = test system: NCIH1666
Procedure, shortened: (§1)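 Seven days' exposure to a 10-point threefold dilution series precedes the CellTiter-Glo luminescence read. Plating uses 5000 cells/well in supplier-recommended medium, and 5 μM staurosporine defines maximal inhibition.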

MDAMB157 = test system: MDAMB157
Procedure, shortened: as §1

MDAMB453 = test system: MDAMB453
Procedure, shortened: as §1

CORL311 = test system: CORL311
Procedure, shortened: as §1

NCIH2081 = test system: NCIH2081
Procedure, shortened: as §1

AZ521 = test system: AZ521
Procedure, shortened: as §1

SNU449 = test system: SNU449
Procedure, shortened: as §1

PANC1 = test system: PANC1
Procedure, shortened: as §1

DMS273 = test system: DMS273
Procedure, shortened: as §1

GL261 = test system: GL261
Procedure, shortened: as §1

NCIH1048 = test system: NCIH1048
Procedure, shortened: as §1

NCIH1092 = test system: NCIH1092
Procedure, shortened: as §1

KYSE520 = test system: KYSE520
Procedure, shortened: as §1

KARPAS299 = test system: KARPAS299
Procedure, shortened: as §1

IMR32 = test system: IMR32
Procedure, shortened: as §1

OCUM1 = test system: OCUM1
Procedure, shortened: as §1

SW837 = test system: SW837
Procedure, shortened: as §1

A673 = test system: A673
Procedure, shortened: as §1

In the case of `Cc1cc(NC2CCN(C(=O)O[C@H]3CCN(C(=O)/C=C/CN(C)C)C3)CC2)n2ncc(C(C)C)c2n1` [Example 1, [(3S)-1-[(E)-4-(dimethylamino)but-2-enoyl]pyrrolidin-3-yl] 4-[(3-isopropyl-5-methyl-pyrazolo[1,5-a]pyrimidin-7-yl)amino]piperidine-1-carboxylate], the IC50 (NCIH1666; Homo sapiens, NCI-H1666, 168 h, read-out: Anti-proliferation effect IC50) is reported as 161 nM, the “Anti-proliferation effect % Inh.” value (NCIH1666; NCIH1666, LUNG, 7 days) is reported as 59% and the “Anti-proliferation effect Outcome” value (NCIH1666; NCIH1666, LUNG, 7 days) is reported as “Cytostatic (cytostatic (IC50<1 μM and % inhibition <70%))”. For the same molecule, the IC50 (MDAMB157; Homo sapiens, MDA-MB-157, 168 h, read-out: Anti-proliferation effect IC50) was 866 nM, the “Anti-proliferation effect % Inh.” value (MDAMB157; MDAMB157, BREAST, 7 days) was 39% and the “Anti-proliferation effect Outcome” value (MDAMB157; MDAMB157, BREAST, 7 days) was “Cytostatic (cytostatic (IC50<1 μM and % inhibition <70%))”. The IC50 (MDAMB453; Homo sapiens, MDA-MB-453, 168 h, read-out: Anti-proliferation effect IC50) was 39 nM, the “Anti-proliferation effect % Inh.” value (MDAMB453; MDAMB453, BREAST, 7 days) was 56% and the “Anti-proliferation effect Outcome” value (MDAMB453; MDAMB453, BREAST, 7 days) was “Cytostatic (cytostatic (IC50<1 μM and % inhibition <70%))”. The IC50 (CORL311; 168 h, read-out: Anti-proliferation effect IC50) was 95 nM, the “Anti-proliferation effect % Inh.” value (CORL311; CORL311, LUNG, 7 days) was 75% and the “Anti-proliferation effect Outcome” value (CORL311; CORL311, LUNG, 7 days) was “Cytotoxic (cytotoxic (IC50<1 μM and % inhibition ≥70%))”. For the same molecule, the IC50 (NCIH2081; Homo sapiens, NCI-H2081, 168 h, read-out: Anti-proliferation effect IC50) was 442 nM, the “Anti-proliferation effect % Inh.” value (NCIH2081; NCIH2081, LUNG, 7 days) was 44% and the “Anti-proliferation effect Outcome” value (NCIH2081; NCIH2081, LUNG, 7 days) was “Cytostatic (cytostatic (IC50<1 μM and % inhibition <70%))”. For the same molecule, the “Anti-proliferation effect % Inh.” value (AZ521; AZ521, STOMACH, 7 days) was 76%, the “Anti-proliferation effect Outcome” value (AZ521; AZ521, STOMACH, 7 days) was “Cytotoxic (cytotoxic (IC50<1 μM and % inhibition ≥70%))” and the IC50 (AZ521; Homo sapiens, AZ-521, 168 h, read-out: Anti-proliferation effect IC50) was 36 nM. For the same molecule, the IC50 (SNU449; Homo sapiens, SNU-449, 168 h, read-out: Anti-proliferation effect IC50) was 1520 nM, the “Anti-proliferation effect % Inh.” value (SNU449; SNU449, LIVER, 7 days) was 8% and the “Anti-proliferation effect Outcome” value (SNU449; SNU449, LIVER, 7 days) was “Insensitive (insensitive (IC50≥1 μM))”. The IC50 (PANC1; Homo sapiens, PANC-1, 168 h, read-out: Anti-proliferation effect IC50) was 71 nM, the “Anti-proliferation effect % Inh.” value (PANC1; PANC1, PANCREAS, 7 days) was 47% and the “Anti-proliferation effect Outcome” value (PANC1; PANC1, PANCREAS, 7 days) was “Cytostatic (cytostatic (IC50<1 μM and % inhibition <70%))”. The “Anti-proliferation effect % Inh.” value (DMS273; DMS273, LUNG, 7 days) was 80%, the “Anti-proliferation effect Outcome” value (DMS273; DMS273, LUNG, 7 days) was “Cytotoxic (cytotoxic (IC50<1 μM and % inhibition ≥70%))” and the IC50 (DMS273; Homo sapiens, DMS-273, 168 h, read-out: Anti-proliferation effect IC50) was 19 nM. The “Anti-proliferation effect % Inh.” value (GL261; GL261, BRAIN, 7 days) was 85%, the “Anti-proliferation effect Outcome” value (GL261; GL261, BRAIN, 7 days) was “Cytotoxic (cytotoxic (IC50<1 μM and % inhibition ≥70%))” and the IC50 (GL261; Mus musculus, GL261, 168 h, read-out: Anti-proliferation effect IC50) was 38 nM. For the same molecule, the IC50 (NCIH1048; Homo sapiens, NCI-H1048, 168 h, read-out: Anti-proliferation effect IC50) was 4 nM, the “Anti-proliferation effect % Inh.” value (NCIH1048; NCIH1048, LUNG, 7 days) was 95% and the “Anti-proliferation effect Outcome” value (NCIH1048; NCIH1048, LUNG, 7 days) was “Cytotoxic (cytotoxic (IC50<1 μM and % inhibition ≥70%))”. For the same molecule, the IC50 (NCIH1092; Homo sapiens, NCI-H1092, 168 h, read-out: Anti-proliferation effect IC50) was 683 nM, the “Anti-proliferation effect % Inh.” value (NCIH1092; NCIH1092, LUNG, 7 days) was 42% and the “Anti-proliferation effect Outcome” value (NCIH1092; NCIH1092, LUNG, 7 days) was “Cytostatic (cytostatic (IC50<1 μM and % inhibition <70%))”. For the same molecule, the IC50 (KYSE520; Homo sapiens, KYSE-520, 168 h, read-out: Anti-proliferation effect IC50) was greater than 10000 nM, the “Anti-proliferation effect % Inh.” value (KYSE520; KYSE520, OESOPHAGUS, 7 days) was 50% and the “Anti-proliferation effect Outcome” value (KYSE520; KYSE520, OESOPHAGUS, 7 days) was “Insensitive (insensitive (IC50≥1 μM))”. The IC50 (KARPAS299; Homo sapiens, KARPAS-299, 168 h, read-out: Anti-proliferation effect IC50) was 69 nM, the “Anti-proliferation effect % Inh.” value (KARPAS299; KARPAS299, BLOOD, 7 days) was 78% and the “Anti-proliferation effect Outcome” value (KARPAS299; KARPAS299, BLOOD, 7 days) was “Cytotoxic (cytotoxic (IC50<1 μM and % inhibition ≥70%))”. For the same molecule, the IC50 (IMR32; Homo sapiens, IMR-32, 168 h, read-out: Anti-proliferation effect IC50) was 2 nM, the “Anti-proliferation effect % Inh.” value (IMR32; IMR32, CNS, 7 days) was 100% and the “Anti-proliferation effect Outcome” value (IMR32; IMR32, CNS, 7 days) was “Cytotoxic (cytotoxic (IC50<1 μM and % inhibition ≥70%))”. For the same molecule, the IC50 (OCUM1; OCUM1, 168 h, read-out: Anti-proliferation effect IC50) was 27 nM, the “Anti-proliferation effect % Inh.” value (OCUM1; OCUM1, STOMACH, 7 days) was 82% and the “Anti-proliferation effect Outcome” value (OCUM1; OCUM1, STOMACH, 7 days) was “Cytotoxic (cytotoxic (IC50<1 μM and % inhibition ≥70%))”. For the same molecule, the IC50 (SW837; Homo sapiens, SW837, 168 h, read-out: Anti-proliferation effect IC50) was 68 nM, the “Anti-proliferation effect % Inh.” value (SW837; SW837, INTESTINE, 7 days) was 55% and the “Anti-proliferation effect Outcome” value (SW837; SW837, INTESTINE, 7 days) was “Cytostatic (cytostatic (IC50<1 μM and % inhibition <70%))”. The “Anti-proliferation effect % Inh.” value (A673; A673, BONE, 7 days) was 96%, the “Anti-proliferation effect Outcome” value (A673; A673, BONE, 7 days) was “Cytotoxic (cytotoxic (IC50<1 μM and % inhibition ≥70%))” and the IC50 (A673; Homo sapiens, A673, 168 h, read-out: Anti-proliferation effect IC50) was 14 nM.
